Source: EP0937734B1, “11-Acetyl-12,13-dioxabicyclo ¬8.2.1 tridecenone derivatives, process for making them and pharmaceutical compositions containing them” (Abbott Products GmbH, priority 1998, dated 1999)

Tests used:
[1] = molecular target: T1, Motilin-Rezeptoren (Oryctolagus cuniculus, UniProt G1T803); experiment: Binding of test substances to motilin receptors (displacement of 125I-labelled motilin, crude membrane preparation from rabbit antrum); set-up: species or system Kaninchen; settings: displacement of iodinated motilin (50 pM), rabbit antrum membrane fraction, 60 min at 30 °C; calculated from IC50
T1 construct: Die so erhaltene Gewebefraktion, welche als "rohe Membranzubereitung" bezeichnet wird, wird für den Test eingesetzt; from tissue; host or cells: rabbit antrum freed of mucosa, crude membrane fraction
T1 sequence (G1T803 1-400): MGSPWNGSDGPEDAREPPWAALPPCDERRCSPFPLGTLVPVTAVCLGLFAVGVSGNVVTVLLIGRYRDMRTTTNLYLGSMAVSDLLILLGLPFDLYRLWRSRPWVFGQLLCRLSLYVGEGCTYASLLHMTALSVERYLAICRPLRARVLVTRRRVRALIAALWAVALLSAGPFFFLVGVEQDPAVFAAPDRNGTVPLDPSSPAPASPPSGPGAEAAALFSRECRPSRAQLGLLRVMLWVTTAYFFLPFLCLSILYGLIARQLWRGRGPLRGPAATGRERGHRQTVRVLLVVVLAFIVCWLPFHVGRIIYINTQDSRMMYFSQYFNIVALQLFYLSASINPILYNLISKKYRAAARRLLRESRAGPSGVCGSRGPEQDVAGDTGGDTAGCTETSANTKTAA
From the text: 1. Bestimmung des Bindungsvermögens der Testsubstanzen an Motilin-Rezeptoren.
Die Affinität der Verbindungen der Formel I an Motilin-Rezeptoren wird in vitro an einer Fraktion eines Gewebehomogenats aus dem Kaninchenantrum gemessen. Bestimmt wird die Verdrängung von radioaktiv markiertem jodiertem Motilin aus der Motilin-Rezeptor-Bindung durch die Testsubstanzen.
Die Rezeptor-Bindungsstudien werden nach einer Modifikation der Methode von Borman et al. (Regulatory Peptides 15 (1986), 143-153) durchgeführt. Zur Herstellung des ^125Jodmarkierten Motilins wird Motilin auf an sich bekannte Weise, z. B. analog der von Bloom et al. (Scand. J. Gastroenterol. 11 (1976) 47 - 52) beschriebenen Methode enzymatisch unter Verwendung von Lactoperoxidase jodiert.
Zur Gewinnung der in dem Test verwendeten Gewebehomogenatfraktion aus dem Kaninchenantrum wird das von Schleimhäuten befreite Antrum zerkleinert und im 10-fachen Volumen einer kalten Homogenisierungspufferlösung (50 mM Tris-HCl-Puffer, 250 mM Sucrose, 25 mM KCl, 10 mM MgCl2, pH 7,4) mit Zusatz von Inhibitoren (1 mM Jodacetamid, 1 µM Pepstatin, 0,1 mM Methylsulfonylfluorid, 0,1 g/l Trypsininhibitor, 0,25 g/l Bacitracin) mit einem Homogenisator 15 sec. bei 1500 Umdrehungen pro Minute homogenisiert. […]

[2] = In vivo determination of the influence on gastric tone (barostat, gastric volume at constant pressure after lipid-induced relaxation); set-up: species or system Beagle-Hunden
From the text: 2. In-vivo-Bestimmung des Einflusses der Substanzen auf den Magentonus
Der Magentonus spielt eine wichtige Rolle bei der Magenentleerung. Ein erhöhter Magentonus trägt zu einer beschleunigten Magenentleerung bei.
Der Einfluß von Substanzen auf den Magentonus wird an Beagle-Hunden mit Hilfe eines Barostaten bestimmt, welcher mit einem Kunststoffbeutel im Magen des Hundes verbunden ist und die Messung von Volumen oder Druck im Magen des Hundes ermöglicht. Mit dem Barostaten wird das Magenvolumen bei konstantem Druck im Magen oder der Magendruck bei konstantem Volumen im Magen bestimmt. Bei Erhöhung des Magentonus stellt man bei einem bestimmten Druck ein verringertes Magenvolumen fest und einen erhöhten Druck bei einem bestimmten Volumen. In dem zur Untersuchung der durch die Substanzen bewirkten Erhöhung des Magentonus verwendeten Testmodell wird die durch die Substanzen verursachte Magenvolumenänderung bei konstantem Druck gemessen. Der Magen der Versuchstiere wird durch Lipideinnahme relaxiert, d. h. der Magentonus sinkt, wodurch das Magenvolumen entsprechend zunimmt. Als Maß für die den Magentonus erhöhende Wirkung der Substanzen wird die nach Substanzeinnahme durch Wiederanstieg des Magentonus eintretende Reduktion des durch Lipidgabe vergrößerten Magenvolumens in % gemessen. […]

[3] = In vivo determination of the influence on the resting tone of the lower oesophageal sphincter (pull-through manometry); set-up: species or system Beagle-Hunden
From the text: 3. In-vivo-Bestimmung des Einflusses der Substanzen auf den Ruhe-Tonus des unteren Oesophagus Sphincter.
Diese Bestimmung wird an männlichen, wachen, nüchternen Beagle-Hunden vorgenommen, denen vor Versuchsbeginn je eine Oesophagus-Fistel und eine Duodenal-Kanüle gelegt worden sind. Der Druck des unteren Oesophagus Sphincter wird mittels eines perfundierten Kathetersystems mit seitlicher Öffnung, das mit einem Druckaufnehmer und einem Recorder verbunden ist, gemessen. Der Katheter wird über die Oesophagus-Fistel in den Magen geführt und dann langsam manuell zurückgezogen (= Durchzugsmanometrie). Beim Passieren des Katheterteils mit der seitlichen Öffnung durch die Hochdruckzone des unteren Oesophagus Sphincter wird ein Peak registriert. Aus diesem Peak wird der Druck in mm Hg bestimmt.
Auf diese Weise wird zunächst als Kontrollwert der basale Druck des Oesophagus Sphincter bestimmt. Anschließend wird die Testsubstanz oral appliziert und nach 15 min. wird der Druck am unteren Oesophagus Sphincter in 2-Minuten-Intervallen über einen Zeitraum von 60 min. gemessen. Die Steigerung des Druckes nach Testsubstanzgabe im Vergleich zu dem vorbestimmten basalen Druck wird berechnet.
In diesem Test nahm der basale Tonus des Oesophagus Sphincter durch eine Dosis von 2,15 µMol/kg der Substanz des Beispiels 1 um 143 % zu. Dieser Effekt hielt während der gesamten Testdauer von 60 min. an.

Structure (SMILES)	IC50 [1] [nM]	Reduktion des nach Lipidgabe vergrößerten Magenvolumens ([2]; Beagle dogs, 2,15 µmol/kg i.d., constant pressure)	Reduktion des Magenvolumens (Lipid-induzierte Relaxierung des Magenvolumens) ([2]; Beagle dogs, 2,15 µmol/kg oral)	Duration of the effect on the tone of the Oesophagus Sphincter ([3]; 2,15 µMol/kg oral, effect lasted for the whole test duration) [min]	Zunahme des basalen Tonus des Oesophagus Sphincter ([3]; conscious fasted male Beagle dogs, 2,15 µMol/kg oral, versus basal pressure) [%]
CO[C@]1(C)C[C@H](O[C@H]2[C@H](C)[C@@H](O[C@@H]3O[C@H](C)C[C@H](N(C)C(C)C)[C@H]3O)[C@@]3(C)CC(C)=C(O3)[C@H](C)[C@H](C(C)=O)OC(=O)[C@@H]2C)O[C@@H](C)[C@@H]1O [Beispiel 1, (2R,3S,4S,5R,6R,10R,11R]-3-[(2,6-Didesoxy-3-C-methyl-3-O-methyl-α-L-ribohexopyranosyl)-oxy]-5-[(3,4,6-tridesoxy-3-(N-methyl-N-isopropylamino)-β-D-xylohexopyranosyl)-oxy]-2,4,6,8,10-pentamethyl-11-acetyl-12,13-dioxabicyclo[8.2.1]-tridec-8-en-1-on]	9.77	59,5%	praktisch völlig verhindert	≥ 60	143
CO[C@]1(C)C[C@H](O[C@H]2[C@H](C)[C@@H](O[C@@H]3O[C@H](C)C[C@H](N(C)C(C)C)[C@H]3OC(C)=O)[C@@]3(C)CC(C)=C(O3)[C@H](C)[C@H](C(C)=O)OC(=O)[C@@H]2C)O[C@@H](C)[C@@H]1O [Beispiel 2, (2R,3S,4S,5R,6R,10R,11R)-3-[(2,6-Didesoxy-3-C-methyl-3-O-methyl-α-L-ribohexopyranosyl)-oxy]-5-[(3,4,6-tridesoxy-2-O-acetyl-3-(N-methyl-N-isopropylamino)-β-D-xylohexopyranosyl)-oxy]-2,4,6,8,10-pentamethyl-11-acetyl-12,13-dioxabicyclo-[8.2.1]tridec-8-en-1-on]	17.8				
